# Results published in patent EP1198478B1, “SOMATOSTATIN ANALOGS AND THEIR USE FOR THE TREATMENT OF CANCER” (Dabur Research Foundation, priority 2000, dated 2002).
# Where “and” joins values, the source holds several entries; their conditions need not be identical. Equal entries are not always repeated.
# Experiments:
# [1] = test system: KB (Oral squamous); test: MTT cytotoxicity assay, KB cells; format: cell-based; settings: 48 hours
# From the text: (§1) The cytotoxic effect of peptides SEQ ID NO: 2, SEQ ID NO: 3, SEQ ID NO: 6, and SEQ ID NO: 9, was studied by MTT assay which is based on the principle of uptake of MTT [3-[4,5-dimethylthiazol-2-yl]-2,5-diphenyl tetrazolium bromide], a tetrazolium salt by the metabolically active cells where it is metabolized by active mitochondria into a blue colored formazan product which can be read spectrophotometrically. Briefly, tumor cells PTC (primary human colon cancer cell line), KB (Oral squamous), U87MG (Glioblastoma), HBL100 (Breast), HeP2 (Laryngeal), ECV304 (Endothelial), PA-1 (Ovary) and L132 (Lung) were incubated with the peptide analogs for 48 hours at 37°C in a 96-well culture plate, followed by the addition of 100 µg MTT and further incubation of 1 hour. The formazan crystals formed inside the cells were dissolved with a detergent comprising 10% Sodium dodecyl sulfate and 0.01 N HCl and optical density read on a multiscan ELISA reader. The optical density was directly proportional to the number of proliferating and metabolically active cells.
# [2] = test system: U87MG (Glioblastoma); test: MTT cytotoxicity assay, U87MG cells; format: cell-based; settings: 48 hours
# From the text: as §1
# [3] = test system: HBL100 (Breast); test: MTT cytotoxicity assay, HBL100 cells; format: cell-based; settings: 48 hours
# From the text: as §1
# [4] = test system: HeP2 (Laryngeal); test: MTT cytotoxicity assay, HeP2 cells; format: cell-based; settings: 48 hours
# From the text: as §1
# [5] = test system: L132 (Lung); test: MTT cytotoxicity assay, L132 cells; format: cell-based; settings: 48 hours
# From the text: as §1
# [6] = test system: PA-1 (Ovary); test: MTT cytotoxicity assay, PA-1 cells; format: cell-based; settings: 48 hours
# From the text: as §1
# [7] = test system: ECV304 (Endothelial); test: MTT cytotoxicity assay, ECV304 cells; format: cell-based; settings: 48 hours
# From the text: as §1
# [8] = test system: PTC (primary human colon cancer cell line); test: MTT cytotoxicity assay, PTC cells; format: cell-based; settings: 48 hours
# From the text: as §1
# [9] = test system: human colon adenocarcinoma (PTC) xenografts; test: In vivo antitumor activity on primary tumor (colon) xenografted mice; design: species or system Balb/c athymic mice; settings: for tumor volumes, Avg: average of three animals; for tumor volumes of individual tumor bearing animals: individual animals (IV, V, VI for SEQ ID NO: 2; I, II, III for SEQ ID NO: 3); for percentage inhibition of tumor growth: as compared to controls, (1-tumor volume-treated/tumor volume control)* 100
# Procedure: The antitumor activity of SEQ ID NO:2 and SEQ ID NO:3 was studied in human colon adenocarcinoma (PTC) xenografts in nude mice. PTC tumor xenografts were grown in Balb/c athymic mice by subcutaneous inoculation of a single cell suspension of PTC cells (15 X10^6 cells/ 100µl). The tumor bearing animals were divided into 3 groups of three animals each including one group comprising untreated control animals. Treatment with novel somatostatin analogs was initiated when the average tumor volumes, as measured using a vernier caliper, were between 400-800 mm^3. Solutions of SEQ ID NO:2 and SEQ ID NO:3 were prepared at a concentration of 85 µg/ml and intravenously administered to the assigned group of tumor bearing animals at a dose of 8.5 µg/100 µl twice a day so that the total dose of […] was administered to each animal. The treatment was continued for a period of 10 days.
# The antitumor activity of the compounds was monitored by measuring tumor volumes every fourth day using the formula W*W*L*.04 (W = smaller diameter, L = larger diameter). The percentage inhibition of tumor growth was calculated using the formula (1-tumor volume-treated/tumor volume control)* 100.
# [10] = day 9, intravenously 8.5 µg/100 µl twice a day, 10 days
# [11] = day 13, intravenously 8.5 µg/100 µl twice a day, 10 days
# [12] = day 18, intravenously 8.5 µg/100 µl twice a day, 10 days
# [13] = day 21, intravenously 8.5 µg/100 µl twice a day, 10 days
substance,measurement,setting,value
D-Phe-Cys-Tyr-D-Trp-Orn-Aib-Pen-Thr-NH2 [SEQ ID NO: 9],Percentage cytotoxicity,[1]; 1nM,28.0 ± 1.6%
same,Percentage cytotoxicity,[1]; 10 nM,27.0 ± 4.8%
same,Percentage cytotoxicity,[1]; 1µM,12.0 ± 1.2%
same,Percentage cytotoxicity,[1]; 100n M,18.0 ± 5.2%
same,Percentage cytotoxicity,[2]; 1nM,13.9 ± 2.5%
same,Percentage cytotoxicity,[2]; 10 nM,29.7 ± 2.4%
same,Percentage cytotoxicity,[2]; 1µM,42.9 ± 1.2%
same,Percentage cytotoxicity,[2]; 100n M,53.3 ± 1.4%
same,Percentage cytotoxicity,[3]; 1nM,26.9 ± 2.6%
same,Percentage cytotoxicity,[3]; 10 nM,23.9 ± 4.4%
same,Percentage cytotoxicity,[3]; 1µM,7.9 ± 1.2%
same,Percentage cytotoxicity,[3]; 100n M,14.9 ± 2.2%
same,Percentage cytotoxicity,[4]; 1nM,15.6 ± 3.6%
same,Percentage cytotoxicity,[4]; 10 nM,21.4 ± 4.4%
same,Percentage cytotoxicity,[4]; 1µM,19.9 ± 2.4%
same,Percentage cytotoxicity,[4]; 100n M,27.9 ± 2.5%
same,Percentage cytotoxicity,[5]; 1nM,14.9 ± 2.6%
same,Percentage cytotoxicity,[5]; 10 nM,26.1 ± 4.8%
same,Percentage cytotoxicity,[5]; 1µM,12.9 ± 1.8%
same,Percentage cytotoxicity,[5]; 100n M,22.8 ± 2.6%
same,Percentage cytotoxicity,[6]; 1nM,4.6 ± 1.0%
same,Percentage cytotoxicity,[6]; 10 nM,12.8 ± 1.4%
same,Percentage cytotoxicity,[6]; 1µM,16.6 ± 3.1%
same,Percentage cytotoxicity,[6]; 100n M,22.7 ± 2.2%
same,Percentage cytotoxicity,[7]; 1nM,18.0 ± 2.9%
same,Percentage cytotoxicity,[7]; 10 nM,23.9 ± 3.1%
same,Percentage cytotoxicity,[7]; 1µM,12.9 ± 1.6%
same,Percentage cytotoxicity,[7]; 100n M,19.9 ± 2.6%
D-Phe-Cys-Tyr-D-Trp-Lys-Ac5c-Pen-Thr-NH2 [SEQ ID NO: 6],Percentage cytotoxicity,[8]; 1nM,12±1.5%
same,Percentage cytotoxicity,[8]; 10 nM,11 ± 7.1%
same,Percentage cytotoxicity,[8]; 1µM,9 ± 2.1%
same,Percentage cytotoxicity,[8]; 100n M,8 ± 5.2%
same,Percentage cytotoxicity,[1]; 1nM,28.0 ± 1.2%
same,Percentage cytotoxicity,[1]; 10 nM,23.0 ± 4.8%
same,Percentage cytotoxicity,[1]; 1µM,12.9 ± 1.1%
same,Percentage cytotoxicity,[1]; 100n M,19.0 ± 5.2%
same,Percentage cytotoxicity,[2]; 1nM,39.0 ± 3.5%
same,Percentage cytotoxicity,[2]; 10 nM,40.4 ± 2.4%
same,Percentage cytotoxicity,[2]; 1µM,39.5 ± 1.2%
same,Percentage cytotoxicity,[2]; 100n M,42.9 ± 1.4%
same,Percentage cytotoxicity,[3]; 1nM,15.7 ± 4.5%
same,Percentage cytotoxicity,[3]; 10 nM,14.5 ± 2.8%
same,Percentage cytotoxicity,[3]; 1µM,8.0 ± 1.4%
same,Percentage cytotoxicity,[3]; 100n M,12.6 ± 3.2%
same,Percentage cytotoxicity,[4]; 1nM,8.0 ± 3.6%
same,Percentage cytotoxicity,[4]; 10 nM,14.8 ± 4.4%
same,Percentage cytotoxicity,[4]; 1µM,10.6 ± 2.4%
same,Percentage cytotoxicity,[4]; 100n M,11.0 ± 2.5%
same,Percentage cytotoxicity,[5]; 1nM,14.9 ± 1.2%
same,Percentage cytotoxicity,[5]; 10 nM,25.7 ± 4.8%
same,Percentage cytotoxicity,[5]; 1µM,13.7 ± 5.8%
same,Percentage cytotoxicity,[5]; 100n M,22.9 ± 2.6%
same,Percentage cytotoxicity,[6]; 1nM,19.4 ± 1.0%
same,Percentage cytotoxicity,[6]; 10 nM,25.9 ± 1.4%
same,Percentage cytotoxicity,[6]; 1µM,8.0 ± 3.3%
same,Percentage cytotoxicity,[6]; 100n M,22.6 ± 2.2%
same,Percentage cytotoxicity,[7]; 1nM,18.9 ± 3.9%
same,Percentage cytotoxicity,[7]; 10 nM,24.9 ± 3.8%
same,Percentage cytotoxicity,[7]; 1µM,7.9 ± 1.6%
same,Percentage cytotoxicity,[7]; 100n M,13.9 ± 2.9%
D-Phe-Cys-Tyr-D-Trp-Orn-Deg-Pen-Thr-NH2 [SEQ ID NO: 2],Percentage cytotoxicity,[8]; 1nM,40 ± 0.5%
same,Percentage cytotoxicity,[8]; 10 nM,14 ± 2.9%
same,Percentage cytotoxicity,[8]; 1µM,9.0 ± 3.2%
same,Percentage cytotoxicity,[8]; 100n M,20 ± 1.5%
same,Percentage cytotoxicity,[1]; 1nM,28.0 ± 3.2%
same,Percentage cytotoxicity,[1]; 10 nM,34.9 ± 4.6%
same,Percentage cytotoxicity,[1]; 1µM,12.0 ± 4.3%
same,Percentage cytotoxicity,[1]; 100n M,19.0 ± 5.2%
same,Percentage cytotoxicity,[2]; 1nM,22.8 ± 3.5%
same,Percentage cytotoxicity,[2]; 10 nM,41.9 ± 2.4%
same,Percentage cytotoxicity,[2]; 1µM,33.9 ± 1.2%
same,Percentage cytotoxicity,[2]; 100n M,39.5 ± 1.4%
same,Percentage cytotoxicity,[3]; 1nM,19.4 ± 4.5%
same,Percentage cytotoxicity,[3]; 10 nM,22.8 ± 1.8%
same,Percentage cytotoxicity,[3]; 1µM,10.6 ± 1.4%
same,Percentage cytotoxicity,[3]; 100n M,15.7 ± 3.5%
same,Percentage cytotoxicity,[4]; 1nM,14.9 ± 3.2%
same,Percentage cytotoxicity,[4]; 10 nM,29.7 ± 4.4%
same,Percentage cytotoxicity,[4]; 1µM,10.0 ± 2.4%
same,Percentage cytotoxicity,[4]; 100n M,13.0 ± 3.5%
same,Percentage cytotoxicity,[5]; 1nM,12.7 ± 2.9%
same,Percentage cytotoxicity,[5]; 10 nM,23.4 ± 4.2%
same,Percentage cytotoxicity,[5]; 1µM,17.7 ± 5.5%
same,Percentage cytotoxicity,[5]; 100n M,22.8 ± 4.6%
same,Percentage cytotoxicity,[6]; 1nM,29.5 ± 24%
same,Percentage cytotoxicity,[6]; 10 nM,27.9 ± 3.4%
same,Percentage cytotoxicity,[6]; 1µM,12.8 ± 3.3%
same,Percentage cytotoxicity,[6]; 100n M,22.9 ± 2.3%
same,Percentage cytotoxicity,[7]; 1nM,22.8 ± 3.9%
same,Percentage cytotoxicity,[7]; 10 nM,19.8 ± 3.3%
same,Percentage cytotoxicity,[7]; 1µM,6.0 ± 2.9%
same,Percentage cytotoxicity,[7]; 100n M,14.9 ± 2.9%
same,"tumor volumes, Avg","[9]; day 0, before treatment",0 mm^3
same,tumor volumes of individual tumor bearing animals,"[9]; day 0, before treatment",0 mm^3
same,"tumor volumes, Avg",[9]; [10],654 mm^3
same,tumor volumes of individual tumor bearing animals,[9]; [10],480 mm^3 and 678 mm^3 and 806 mm^3
same,"tumor volumes, Avg",[9]; [11],1927 mm^3
same,tumor volumes of individual tumor bearing animals,[9]; [11],1254 mm^3 and 2196 mm^3 and 2333 mm^3
same,"tumor volumes, Avg",[9]; [12],3886 mm^3
same,tumor volumes of individual tumor bearing animals,[9]; [12],1965 mm^3 and 5240 mm^3 and 4453 mm^3
same,percentage inhibition of tumor growth,[9]; [13],57.1%
same,"tumor volumes, Avg",[9]; [13],3860 mm^3
same,tumor volumes of individual tumor bearing animals,[9]; [13],491 mm^3 and 4839 mm^3 and 6250 mm^3
D-Phe-Cys-Tyr-D-Trp-Orn-Ac5c-Pen-Thr-NH2 [SEQ ID NO: 3],Percentage cytotoxicity,[8]; 1nM,15 ± 1.5%
same,Percentage cytotoxicity,[8]; 10 nM,11 ± 0.8%
same,Percentage cytotoxicity,[8]; 1µM,13 ± 2.3%
same,Percentage cytotoxicity,[8]; 100n M,13 ± 1.3%
same,Percentage cytotoxicity,[1]; 1nM,29.8 ± 1.2%
same,Percentage cytotoxicity,[1]; 10 nM,25.0 ± 4.6%
same,Percentage cytotoxicity,[1]; 1µM,17.9 ± 1.3%
same,Percentage cytotoxicity,[1]; 100n M,19.4 ± 5.2%
same,Percentage cytotoxicity,[2]; 1nM,44.2 ± 3.5%
same,Percentage cytotoxicity,[2]; 10 nM,45.0 ± 2.4%
same,Percentage cytotoxicity,[2]; 1µM,28.9 ± 1.2%
same,Percentage cytotoxicity,[2]; 100n M,42.4 ± 1.4%
same,Percentage cytotoxicity,[3]; 1nM,14.6 ± 4.5%
same,Percentage cytotoxicity,[3]; 10 nM,17.5 ± 2.8%
same,Percentage cytotoxicity,[3]; 1µM,10.6 ± 1.4%
same,Percentage cytotoxicity,[3]; 100n M,11.8±3.2%
same,Percentage cytotoxicity,[4]; 1nM,13.9 ± 3.6%
same,Percentage cytotoxicity,[4]; 10 nM,26.8 ± 4.4%
same,Percentage cytotoxicity,[4]; 1µM,10.0 ± 2.4%
same,Percentage cytotoxicity,[4]; 100n M,25.8 ± 2.5%
same,Percentage cytotoxicity,[5]; 1nM,19.0 ± 2.2%
same,Percentage cytotoxicity,[5]; 10 nM,28.6 ± 4.2%
same,Percentage cytotoxicity,[5]; 1µM,19.8 ± 5.5%
same,Percentage cytotoxicity,[5]; 100n M,25.9 ± 2.6%
same,Percentage cytotoxicity,[6]; 1nM,29.5 ± 1.0%
same,Percentage cytotoxicity,[6]; 10 nM,39.5 ± 3.4%
same,Percentage cytotoxicity,[6]; 1µM,19.5 ± 3.3%
same,Percentage cytotoxicity,[6]; 100n M,38.5 ± 2.2%
same,Percentage cytotoxicity,[7]; 1nM,13.9 ± 3.9%
same,Percentage cytotoxicity,[7]; 10 nM,23.9 ± 1.3%
same,Percentage cytotoxicity,[7]; 1µM,14.9 ± 1.6%
same,Percentage cytotoxicity,[7]; 100n M,15.9 ± 2.9%
same,"tumor volumes, Avg","[9]; day 0, before treatment",0 mm^3
same,tumor volumes of individual tumor bearing animals,"[9]; day 0, before treatment",0 mm^3
same,"tumor volumes, Avg",[9]; [10],552 mm^3
same,tumor volumes of individual tumor bearing animals,[9]; [10],560 mm^3 and 774 mm^3 and 324 mm^3
same,"tumor volumes, Avg",[9]; [11],1758 mm^3
same,tumor volumes of individual tumor bearing animals,[9]; [11],1946 mm^3 and 1800 mm^3 and 1530 mm^3
same,"tumor volumes, Avg",[9]; [12],3674 mm^3
same,tumor volumes of individual tumor bearing animals,[9]; [12],3177 mm^3 and 3610 mm^3 and 4234 mm^3
same,percentage inhibition of tumor growth,[9]; [13],54.7%
same,"tumor volumes, Avg",[9]; [13],4080 mm^3
same,tumor volumes of individual tumor bearing animals,[9]; [13],0 mm^3 and 4939 mm^3 and 7301 mm^3
